This note sets out measurements from patent publication US10336762B2 (priority 2017, dated 2019).

pEC50, pIC50: −log10 of the molar value.

In one assay the target is IRAK4 enzyme (Homo sapiens (Human), UniProt Q9NWZ3). Nature of the assay: biochemical. The class given is biochemical. The settings on record: IRAK4 enzyme, TR-FRET (HTRF), 500 μM ATP. On the technique in general: In TR-FRET formats the signal depends on donor and acceptor labels being close together.
The test system of another assay is TNFα. As to the kind of experiment: cells. The class given is cell-based, human. The settings on record: Homo sapiens, Monocyte, LPS-stimulated human monocytes, TNFα content; read-out: EC50 TNF.

Sequence of IRAK4 enzyme (Q9NWZ3 whole entry): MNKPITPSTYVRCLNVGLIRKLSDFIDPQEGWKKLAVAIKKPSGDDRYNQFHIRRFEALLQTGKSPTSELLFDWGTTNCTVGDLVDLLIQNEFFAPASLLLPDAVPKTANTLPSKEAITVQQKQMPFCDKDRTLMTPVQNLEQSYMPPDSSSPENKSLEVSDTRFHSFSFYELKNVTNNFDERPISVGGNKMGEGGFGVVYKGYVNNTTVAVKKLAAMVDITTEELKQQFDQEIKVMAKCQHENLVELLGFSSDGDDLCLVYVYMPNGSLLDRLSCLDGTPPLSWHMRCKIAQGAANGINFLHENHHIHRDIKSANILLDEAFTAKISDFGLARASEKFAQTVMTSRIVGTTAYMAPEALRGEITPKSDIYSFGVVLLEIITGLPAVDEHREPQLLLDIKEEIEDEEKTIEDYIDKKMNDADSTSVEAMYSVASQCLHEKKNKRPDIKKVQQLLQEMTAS

The molecule `CC(C)(O)[C@H](F)CNC(=O)c1cnc(-c2ccc3cc(C#N)cnn23)cc1N[C@H]1C[C@H](CNC(=O)OCC(F)(F)F)C1` [Example 654, 2,2,2-trifluoroethyl (((1R,3r)-3-((2-(3-cyanopyrrolo[1,2-b]pyridazin-7-yl)-5-(((R)-2-fluoro-3-hydroxy-3-methylbutyl)carbamoyl)pyridin-4-yl)amino)cyclo-butyl)methyl)carbamate] gave a pIC50 on IRAK4 enzyme of more than 9.00. The pEC50 in the assay on TNFα was 7.82.
`CC(C)(O)[C@H](F)CNC(=O)c1cnc(-c2ccc3cc(C#N)cnn23)cc1N[C@H]1C[C@H](CNC(=O)CC(F)(F)F)C1` [Example 655, 6-(3-cyanopyrrolo[1,2-b]pyridazin-7-yl)-N-((R)-2-fluoro-3-hydroxy-3-methylbutyl)-4-(((1r,3R)-3-((3,3,3-trifluoropropan-amido)methyl)cyclobutyl)amino)nicotinamide] had a pIC50 against IRAK4 enzyme of more than 9.00. For the same molecule, the pEC50 with TNFα was 7.57.
The like results for `CC(C)(O)[C@H](F)CNC(=O)c1cnc(-c2ccc3cc(C#N)cnn23)cc1N[C@H]1C[C@H](CNC(=O)CC(F)F)C1` [Example 656, 6-(3-cyanopyrrolo[1,2-b]pyridazin-7-yl)-4-(((1r,3R)-3-((3,3-difluoropropanamido)methyl)cyclobutyl)amino)-N-((R)-2-fluoro-3-hydroxy-3-methylbutyl) nicotinamide] were, in that order, more than 9.00 and 7.40.
The matching figures for `CC(C)(O)[C@H](F)CNC(=O)c1cnc(-c2ccc3cc(C#N)cnn23)cc1Nc1ccc(N)nc1` [Example 657, (R)-4-((6-aminopyridin-3-yl)amino)-6-(3-cyano-pyrrolo[1,2-b]pyridazin-7-yl)-N-(2-fluoro-3-hydroxy-3-methylbutyl)nicotinamide]: more than 9.00 and 7.64.
The like results for `CC(C)(O)[C@H](F)CNC(=O)c1cnc(-c2ccc3cc(C#N)cnn23)cc1Nc1cnc(N)nc1` [Example 658, (R)-4-((2-aminopyrimidin-5-yl)amino)-6-(3-cyano-pyrrolo[1,2-b]pyridazin-7-yl)-N-(2-fluoro-3-hydroxy-3-methylbutyl)nicotinamide] were, in that order, more than 9.00 and 7.43.
At IRAK4 enzyme, `CC(C)(O)[C@H](F)CNC(=O)c1cnc(-c2ccc3cc(C#N)cnn23)cc1N[C@H]1C[C@H](CNC(=O)[C@@H]2C[C@H]2F)C1` [Example 659, 6-(3-cyanopyrrolo[1,2-b]pyridazin-7-yl)-N-((R)-2-fluoro-3-hydroxy-3-methylbutyl)-4-(((1S,3R)-3-(((1S,2R)-2-fluoro-cyclopropane-1-carbox-amido)methyl)cyclobutyl)amino)nicotinamide] gave a pIC50 of more than 9.00. Moreover, in the assay on TNFα, the pEC50 was 7.80.
Take `Cc1n[nH]c2cc(Nc3cc(-c4ccc5cc(C#N)cnn45)ncc3C(=O)NC[C@@H](F)C(C)(C)O)ccc12` [Example 660, (R)-6-(3-cyanopyrrolo[1,2-b]pyridazin-7-yl)-N-(2-fluoro-3-hydroxy-3-methylbutyl)-4-((3-methyl-1H-indazol-6-yl)amino) nicotinamide]: the pIC50 against IRAK4 enzyme was 9.00. Moreover, the pEC50 with TNFα is 7.19.
The like results for `CNc1ccc(Nc2cc(-c3ccc4cc(C#N)cnn34)ncc2C(=O)NC[C@@H](F)C(C)(C)O)cn1` [Example 661, (R)-6-(3-cyanopyrrolo[1,2-b]pyridazin-7-yl)-N-(2-fluoro-3-hydroxy-3-methylbutyl)-4-((6-(methylamino)pyridin-3-yl)amino)nicotinamide] were, in that order, more than 9.00 and 7.72.
Consider `CC(=O)Nc1ccc(Nc2cc(-c3ccc4cc(C#N)cnn34)ncc2C(=O)NC[C@@H](F)C(C)(C)O)cn1` [Example 662, (R)-4-((6-acetamido-pyridin-3-yl)amino)-6-(3-cyanopyrrolo[1,2-b]pyridazin-7-yl)-N-(2-fluoro-3-hydroxy-3-methylbutyl)nicotinamide], for which the pIC50 on IRAK4 enzyme was more than 9.00. In the assay on TNFα, the negative logarithm of the EC50 (pEC50) is 7.92.
In turn, `COCCOc1ncc(Nc2cc(-c3ccc4cc(C#N)cnn34)ncc2C(=O)NC[C@@H](F)C(C)(C)O)cn1` [Example 663, (R)-6-(3-cyanopyrrolo[1,2-b]pyridazin-7-yl)-N-(2-fluoro-3-hydroxy-3-methylbutyl)-4-((2-(2-methoxyethoxy)pyrimidin-5-yl)amino)nicotinamide] gave a pIC50 on IRAK4 enzyme of more than 9.00. The pEC50 with TNFα was 7.28.
The matching figures for `CC(C)(O)[C@H](F)CNC(=O)c1cnc(-c2ccc3cc(C#N)cnn23)cc1Nc1ccc(CO)nc1` [Example 664, (R)-6-(3-cyanopyrrolo[1,2-b]pyridazin-7-yl)-N-(2-fluoro-3-hydroxy-3-methylbutyl)-4-((6-(hydroxymethyl)pyridin-3-yl)amino)nicotinamide]: more than 9.00 and 7.85.
The matching figures for `CC(C)(O)[C@H](F)CNC(=O)c1cnc(-c2ccc3cc(C#N)cnn23)cc1Nc1ccc2c(c1)C1(CC1)C(=O)N2` [Example 665, (R)-6-(3-cyanopyrrolo[1,2-b]pyridazin-7-yl)-N-(2-fluoro-3-hydroxy-3-methylbutyl)-4-((2′-oxospiro[cyclopropane-1,3′-indolin]-5′-yl)amino)nicotinamide]: 8.10 and 6.52.
In turn, `CC(C)(O)[C@H](F)CNC(=O)c1cnc(-c2ccc3cc(C#N)cnn23)cc1Nc1cnc(C2CC2)nc1` [Example 666, (R)-6-(3-cyanopyrrolo[1,2-b]pyridazin-7-yl)-4-((2-cyclopropylpyrimidin-5-yl)amino)-N-(2-fluoro-3-hydroxy-3-methylbutyl) nicotinamide] showed a pIC50 against IRAK4 enzyme of more than 9.00. In addition, the negative-log EC50 (pEC50) with TNFα was 7.52.
The matching figures for `COc1ccc(Nc2cc(-c3ccc4cc(C#N)cnn34)ncc2C(=O)NC[C@@H](F)C(C)(C)O)nc1` [Example 667, (R)-6-(3-cyanopyrrolo[1,2-b]pyridazin-7-yl)-N-(2-fluoro-3-hydroxy-3-methylbutyl)-4-((5-methoxypyridin-2-yl)amino)nicotinamide]: more than 9.00 and 7.35.
Turning to `CC(C)(O)[C@H](F)CNC(=O)c1cnc(-c2ccc3cc(C#N)cnn23)cc1Nc1cnc2c(c1)CC(=O)N2` [Example 668, (R)-6-(3-cyanopyrrolo[1,2-b]pyridazin-7-yl)-N-(2-fluoro-3-hydroxy-3-methylbutyl)-4-((2-oxo-2,3-dihydro-1H-pyrrolo[2,3-b]pyridin-5-yl)amino)nicotinamide], the pIC50 against IRAK4 enzyme is 9.00. The pEC50 in the assay on TNFα is 6.78.
Molecule `CN(C)c1ncc(Nc2cc(-c3ccc4cc(C#N)cnn34)ncc2C(=O)NC[C@@H](F)C(C)(C)O)cn1` [Example 669, (R)-6-(3-cyanopyrrolo[1,2-b]pyridazin-7-yl)-4-((2-(dimethylamino)pyrimidin-5-yl)amino)-N-(2-fluoro-3-hydroxy-3-methylbutyl) nicotinamide] had a pIC50 on IRAK4 enzyme of more than 9.00. In the assay with TNFα, the pEC50 was 8.40.
The matching figures for `CC(C)(O)[C@H](F)CNC(=O)c1cnc(-c2ccc3cc(C#N)cnn23)cc1Nc1ccc(CO)cn1` [Example 670, (R)-6-(3-cyanopyrrolo[1,2-b]pyridazin-7-yl)-N-(2-fluoro-3-hydroxy-3-methylbutyl)-4-((5-(hydroxymethyl)pyridin-2-yl)amino)nicotinamide]: 7.03 and less than 5.00.
As to `CC(C)(O)[C@H](F)CNC(=O)c1cnc(-c2ccc3cc(C#N)cnn23)cc1Nc1cnc(N2CCOCC2)nc1` [Example 671, (R)-6-(3-cyanopyrrolo[1,2-b]pyridazin-7-yl)-N-(2-fluoro-3-hydroxy-3-methylbutyl)-4-((2-morpholinopyrimidin-5-yl)amino)nicotinamide], at IRAK4 enzyme, the pIC50 was more than 9.00. The negative logarithm of the EC50 (pEC50) with TNFα is 7.66.
The matching figures for `CC(C)(O)[C@H](F)CNC(=O)c1cnc(-c2ccc3cc(C#N)cnn23)cc1NC1Cc2ccncc2C1` (stereo partly drawn) [Example 672, 6-(3-cyanopyrrolo[1,2-b]pyridazin-7-yl)-4-((6,7-dihydro-5H-cyclopenta[c]pyridin-6-yl)amino)-N-((R)-2-fluoro-3-hydroxy-3-methylbutyl)nicotinamide]: more than 9.00 and 7.18.
The matching figures for `CC(C)(O)[C@H](F)CNC(=O)c1cnc(-c2ccc3cc(C#N)cnn23)cc1Nc1ccc(N2CCOCC2)nc1` [Example 673, (R)-6-(3-cyanopyrrolo[1,2-b]pyridazin-7-yl)-N-(2-fluoro-3-hydroxy-3-methyl-butyl)-4-((6-morpholino-pyridin-3-yl)amino) nicotinamide]: more than 9.00 and 7.72.
The matching figures for `CNC(=O)c1ncc(Nc2cc(-c3ccc4cc(C#N)cnn34)ncc2C(=O)NC[C@@H](F)C(C)(C)O)cn1` [Example 674, (R)-5-((2-(3-cyano-pyrrolo[1,2-b]pyridazin-7-yl)-5-((2-fluoro-3-hydroxy-3-methylbutyl)carbamoyl)pyridin-4-yl)amino)-N-methyl-pyrimidine-2-carboxamide]: more than 9.00 and 7.17.
With `CC(C)(O)[C@H](F)CNC(=O)c1cnc(-c2ccc3cc(C#N)cnn23)cc1Nc1ccc(N2CCC2)nc1` [Example 675, (R)-4-((6-(azetidin-1-yl)pyridin-3-yl)amino)-6-(3-cyanopyrrolo[1,2-b]pyridazin-7-yl)-N-(2-fluoro-3-hydroxy-3-methylbutyl)nicotinamide], the pIC50 against IRAK4 enzyme was more than 9.00. Also, in the assay on TNFα, the negative-log EC50 (pEC50) was 7.64.
The like results for `CC(C)(O)[C@H](F)CNC(=O)c1cnc(-c2ccc3cc(C#N)cnn23)cc1Nc1ccc(CC#N)nc1` [Example 678, (R)-4-((6-(cyanomethyl)pyridin-3-yl)amino)-6-(3-cyanopyrrolo[1,2-b]pyridazin-7-yl)-N-(2-fluoro-3-hydroxy-3-methylbutyl)nicotinamide] were, in that order, more than 9.00 and 8.05.
The like results for `CN(C)c1ccc(Nc2cc(-c3ccc4cc(C#N)cnn34)ncc2C(=O)NC[C@@H](F)C(C)(C)O)cn1` [Example 679, (R)-6-(3-cyanopyrrolo[1,2-b]pyridazin-7-yl)-4-((6-(dimethylamino)pyridin-3-yl)amino)-N-(2-fluoro-3-hydroxy-3-methylbutyl)nicotinamide] were, in that order, more than 9.00 and 7.77.

A word on the pIC50: it is −log10 of the IC50, conventionally taken in molar units. A lower pIC50 goes with a large IC50. The pEC50 is the EC50 on a negative log10 scale, so that one unit is a factor of ten.
